The text below walks through data of ChEMBL document CHEMBL2396531, “Hybrid molecule from O2-(2,4-dinitrophenyl)diazeniumdiolate and oleanolic acid: a glutathione S-transferase π-activated nitric oxide prodrug with selective anti-human hepatocellular carcinoma activity and improved stability” (J Med Chem, 2013).

Data set [1] concerns SMMC-7721. As to the kind of experiment: Cytotoxicity against human SMMC7721 cells after 72 hrs by MTT assay. Particulars: SMMC-7721, 72 h; call rule not given here. The format is functional, cell-based.
Data set [2] has as its system HepG2. The data set can be described thus: Cytotoxicity against human HepG2 cells after 72 hrs by MTT assay. The format is functional, cell-based. Conditions: HepG2, 72 h.
Data set [3] relates to Bel-7402. As to the kind of experiment: Cytotoxicity against human Bel7402 cells after 72 hrs by MTT assay. The format is functional, cell-based. Conditions: Bel-7402, 72 h.
Data set [4] deals with HepG2. The data set can be described thus: Cytotoxicity against human HepG2 cells after 48 hrs by MTT assay. Conditions: HepG2, 48 h. The format is functional, cell-based.
In data set [5] the test system is HepG2. As to the kind of experiment: Cytotoxicity against human HepG2 cells after 24 hrs by MTT assay. The format is functional, cell-based. Conditions: HepG2, 24 h.
The nature of data set [6]: Chemical stability in PBS buffer at pH 7.4 in presence of 4 mM GSH at 37 degC after 15 to 20 mins by HPLC analysis. The format is physicochemical.
Data set [7] in a line: Chemical stability in PBS buffer at pH 7.4 in presence of 1 mM GSH at room temperature for 30 mins by spectrophotometry. The format is physicochemical. Conditions: pH 7.4, 0.5 h.
For data set [8], the system named is Bel-7402. The data set can be described thus: Cytotoxicity against human Bel7402 cells at 30 uM after 24 hrs by MTT assay. The format is functional.
Data set [9] relates to HepG2. The data set can be described thus: Cytotoxicity against human HepG2 cells at 30 uM after 24 hrs by MTT assay. The format is functional.
For data set [10], the system named is SMMC-7721. As to the kind of experiment: Cytotoxicity against human SMMC7721 cells at 30 uM after 24 hrs by MTT assay. The format is functional.
Data set [11] deals with H22. As to the kind of experiment: Antitumor activity against mouse H22 cells […] in mouse assessed as inhibition of tumor growth at 153.8 umol/kg, ip after 14 days relative to vehicle-treated control. The format is functional. Particulars: 336 h.
Data set [12] can be described thus: Activity at GSTalpha (unknown origin) assessed per mg protein by Michaelis-Menten equation. The format is ADME. Conditions: human.
The nature of data set [13]: (§1) Activity at GSTalpha (unknown origin) by Michaelis-Menten equation. The format is ADME. Conditions: human.
Data set [14] has as its system GSTalpha. The description is as §1. The format is ADME. Conditions: human, GSTalpha enzyme.
Data set [15] is described as follows: Activity at GSTalpha (unknown origin) assessed as compound decomposition in presence of 1mM GSH at 40 uM by microplate reader analysis. The format is ADME. Conditions: human.
For data set [16], the target named is Glutathione S-transferase P (Homo sapiens, UniProt P09211). The data set can be described thus: Activity at GSTpi (unknown origin) assessed as compound decomposition in presence of 1mM GSH at 40 uM by microplate reader analysis. The format is ADME.
For data set [17], the system named is H22. As to the kind of experiment: Antitumor activity against mouse H22 cells […] in mouse assessed as inhibition of tumor growth at 38.3 umol/kg, ip after 14 days relative to vehicle-treated control. The format is functional. Particulars: 336 h.
Data set [18] relates to H22. The data set can be described thus: Antitumor activity against mouse H22 cells […] in mouse assessed as inhibition of tumor growth at 19.2 umol/kg, ip after 14 days relative to vehicle-treated control. The format is functional. Conditions: 336 h.
The test system of data set [19] is H22. The data set can be described thus: Antitumor activity against mouse H22 cells […] in mouse assessed as inhibition of tumor growth at 9.6 umol/kg, ip after 14 days relative to vehicle-treated control. The format is functional. Particulars: 336 h.
Data set [20] is described as follows: Acute toxicity in ip dosed mouse after 14 days. The format is organism-based. Particulars: in vivo.
In data set [21] the test system is Mus musculus. As to the kind of experiment: Acute toxicity in mouse assessed as activity at 196.1 umol/kg, ip after 14 days. The format is organism-based. Particulars: in vivo, 336 h.
In data set [22] the test system is Mus musculus. As to the kind of experiment: Acute toxicity in mouse assessed as abnormality in drinking at 196.1 umol/kg, ip after 14 days. Particulars: in vivo, 336 h. The format is organism-based.
Data set [23] concerns Mus musculus. As to the kind of experiment: Acute toxicity in mouse assessed as body weight at 196.1 umol/kg, ip after 14 days. The format is organism-based. Particulars: in vivo, 336 h.
Data set [24] concerns Mus musculus. The data set can be described thus: Acute toxicity in mouse assessed as abnormality in eating at 196.1 umol/kg, ip after 14 days. Conditions: in vivo, 336 h. The format is organism-based.
For data set [25], the system named is Mus musculus. As to the kind of experiment: Acute toxicity in mouse assessed as mortality at 196.1 umol/kg, ip after 14 days. Conditions: in vivo, 336 h. The format is organism-based.
For data set [26], the system named is Mus musculus. The data set can be described thus: Acute toxicity in mouse assessed as mortality at 383.1 umol/kg, ip after 14 days. The format is organism-based. Particulars: in vivo, 336 h.
The nature of data set [27]: Metabolic stability in Sprague-Dawley rat plasma at 40 uM after 9 hrs by HPLC analysis. The format is ADME, cell-free. Conditions: read-out: Stability.
Data set [28] relates to Plasma. The data set can be described thus: Metabolic stability in Sprague-Dawley rat plasma at 40 uM after 6 hrs by HPLC analysis. The format is ADME, cell-free.
The nature of data set [29]: Chemical stability in PBS buffer at pH 7.4 in presence of 5 mM GSH at 37 degC after 100 mins by HPLC analysis. The format is physicochemical. Conditions: PBS buffer with 5 mM GSH, read-out: Stability.
For data set [30], the system named is HepG2. The data set can be described thus: Induction of intracellular NO release in human HepG2 cells at 30 uM after 6 hrs by Griess assay relative to PABA/NO. The format is functional.
Data set [31] has as its system HepG2. The data set can be described thus: Induction of intracellular NO release in human HepG2 cells at 30 uM after 6 hrs by Griess assay relative to JS-K. The format is functional.
Data set [32] deals with HepG2. As to the kind of experiment: Cytotoxicity against human HepG2 cells assessed as cell viability at 3 uM after 24 hrs by MTT assay. The format is functional. Particulars: HepG2, 24 h, read-out: Activity.
The subject of data set [33] is HepG2. As to the kind of experiment: Cytotoxicity against human HepG2 cells assessed as cell viability at 3 uM after 24 hrs by MTT assay in presence of EA. The format is functional. Particulars: HepG2, 24 h, read-out: Activity.
Data set [34] is described as follows: Cytotoxicity against human LO2 cells at 1 to 4 uM after 24 hrs by MTT assay. The format is cell-based. Particulars: l02, 24 h.

Where only a bound is given, the exact number is not on record here.

Chain of Glutathione S-transferase P (P09211 whole entry): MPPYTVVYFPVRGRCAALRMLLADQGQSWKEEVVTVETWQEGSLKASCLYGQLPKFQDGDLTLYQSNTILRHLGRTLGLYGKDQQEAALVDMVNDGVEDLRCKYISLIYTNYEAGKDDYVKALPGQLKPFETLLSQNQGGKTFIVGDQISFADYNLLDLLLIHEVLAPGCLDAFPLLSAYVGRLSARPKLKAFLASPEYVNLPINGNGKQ

As to `C[C@H](Nc1cc(O/N=[N+](\[O-])N(C)CCO)c([N+](=O)[O-])cc1[N+](=O)[O-])C(=O)O[C@H]1CC[C@]2(C)[C@H]3CC=C4[C@@H]5CC(C)(C)CC[C@]5(C(=O)O[C@@H]5O[C@H](CO)[C@H](O)[C@H](O)[C@H]5O)CC[C@@]4(C)[C@]3(C)CC[C@H]2C1(C)C`, the IC50 in data set [1] came out at 8.84 µM; in data set [2] it was 6.91 µM; in data set [3] it was 7.38 µM; in data set [4], 7.89 µM; in [5], 9.12 µM.

As to `CCOC(=O)N1CCN(/[N+]([O-])=N/Oc2ccc([N+](=O)[O-])cc2[N+](=O)[O-])CC1`, the Stability result in data set [6] is on record as “Unstable”; in data set [7], “Stable”. In addition, the IC50 in data set [1] is 7.31 µM; in [2], 5.19 µM; in [3] it was 5.17 µM; in data set [4], 7.12 µM; in data set [5] it was 12.2 µM. For the same compound, the Cytotoxicity in data set [8], in [9] and in data set [10] was 67% each time.

Take `O=c1[nH]cc(F)c(=O)[nH]1` [FLUOROURACIL]: in data set [11], the inhibition in vivo at 153.8 µmol/kg amounted to 57.5%.

On to `CN(CCO)/[N+]([O-])=N/Oc1cc(NCC(=O)O[C@H]2CC[C@]3(C)[C@H]4CC=C5[C@@H]6CC(C)(C)CC[C@]6(C(=O)O[C@@H]6O[C@H](CO)[C@H](O)[C@H](O)[C@H]6O)CC[C@@]5(C)[C@]4(C)CC[C@H]3C2(C)C)c([N+](=O)[O-])cc1[N+](=O)[O-]`, for which the IC50 stood at 7.44 µM in [1]; 3.65 µM in data set [2]; 5.68 µM in data set [3]; 6.65 µM in data set [4]; 9.59 µM in [5].

Regarding `CN(CCO)/[N+]([O-])=N\Oc1cc(NCCC(=O)O[C@H]2CC[C@]3(C)[C@H]4CC=C5[C@@H]6CC(C)(C)CC[C@]6(C(=O)O[C@@H]6O[C@H](CO)[C@H](O)[C@H](O)[C@H]6O)CC[C@@]5(C)[C@]4(C)CC[C@H]3C2(C)C)c([N+](=O)[O-])cc1[N+](=O)[O-]`, the IC50 is 3.97 µM in data set [1]; 2.05 µM in [2]; 2.36 µM in [3]; 3.56 µM in data set [4]; 5.45 µM in [5]. The Cytotoxicity in data set [8], in [9] and in [10] was more than 70% in each case.

`CN(CCO)/[N+]([O-])=N\Oc1cc(N2CCN(CC(=O)O[C@H]3CC[C@]4(C)[C@H]5CC=C6[C@@H]7CC(C)(C)CC[C@]7(C(=O)O[C@@H]7O[C@H](CO)[C@H](O)[C@H](O)[C@H]7O)CC[C@@]6(C)[C@]5(C)CC[C@H]4C3(C)C)CC2)c([N+](=O)[O-])cc1[N+](=O)[O-]`: the Vmax in [12] worked out at 1.69 µmol/min. In addition, the Kcat in data set [13] is 0.72 s⁻¹. In addition, in data set [14], the Km is 264 µM. The Activity entry in data set [15] is “Active”; in [16], “Active”; in data set [21], “Non-toxic”; in data set [22], “Non-toxic”; in data set [23] it was “Non-toxic”; in [24], “Non-toxic”. The values for the Activity result in data set [25], in [26] and in [34] were “Non-toxic”, “Toxic” and “Toxic”, respectively. In data set [17], the inhibition in vivo at 38.3 µmol/kg is 68.4%. Besides, the inhibition in vivo at 19.2 µmol/kg in data set [18] was 36.1%. In addition, in data set [19], the inhibition in vivo at 9.6 µmol/kg was determined as 13.4%. For the same compound, the LD50 at 336 h in data set [20] is 250 µmol/kg. In addition, the remaining at 9 h, 40 µM in data set [27] is 80%. Moreover, the Stability entry in data set [28] and in [7] was “Stable” in each case. Further, the remaining at 100 min in data set [29] was determined as 78%. Further, the Ratio in data set [30] and in data set [31] was 2 throughout. Moreover, the results for the viability at 3 µM in data set [32] and in data set [33] were 17% and 41.7%, respectively. Further, the IC50 was 2.3 µM in [1]; 1.41 µM in data set [2]; 1.45 µM in [3]; 2.11 µM in data set [4]; 3.38 µM in data set [5]. The Cytotoxicity in data set [8], in data set [9] and in [10] was 80% each time.
